# In US20260258039A1, “AROMATIC COMPOUND, METHOD FOR PREPARING SAME, AND USE THEREOF IN PREPARATION OF ESTROGEN RECEPTOR DEGRADER” (Hinova Pharmaceuticals Inc., priority 2022, published 2026):
# Read-outs that look alike come from different tables or passages of the source.
# Target: T1, ER (Homo sapiens, UniProt P03372)
# T1 construct: T47D breast cancer cells were subcultured in cell culture medium; endogenous in cells; host or cells: T47D breast cancer cells
# T1 sequence (P03372 1-595): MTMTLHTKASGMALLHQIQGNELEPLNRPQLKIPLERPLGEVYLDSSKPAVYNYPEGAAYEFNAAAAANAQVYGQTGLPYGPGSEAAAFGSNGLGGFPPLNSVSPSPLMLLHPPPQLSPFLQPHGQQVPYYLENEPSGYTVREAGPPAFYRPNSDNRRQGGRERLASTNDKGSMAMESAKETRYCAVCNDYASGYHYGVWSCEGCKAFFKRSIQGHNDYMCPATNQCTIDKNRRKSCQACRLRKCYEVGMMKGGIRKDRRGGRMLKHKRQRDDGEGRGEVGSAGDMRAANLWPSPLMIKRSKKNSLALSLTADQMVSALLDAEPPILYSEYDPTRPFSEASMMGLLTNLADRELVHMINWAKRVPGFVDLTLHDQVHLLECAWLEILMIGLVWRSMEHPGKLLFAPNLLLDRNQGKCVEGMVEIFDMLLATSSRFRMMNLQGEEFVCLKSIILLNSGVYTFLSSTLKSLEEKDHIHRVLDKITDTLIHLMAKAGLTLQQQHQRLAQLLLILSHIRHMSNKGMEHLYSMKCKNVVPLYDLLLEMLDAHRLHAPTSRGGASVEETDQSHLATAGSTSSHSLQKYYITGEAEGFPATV
# Assay: Degradation activities on ER (ELISA) in T47D breast cancer cells
# Assay type: cell-based
# Conditions: T47D cells, 24 h, ELISA; for DC50: concentration required to degrade 50% of the target protein; for Dmax: maximum percentage of target protein degraded
# Description: T47D breast cancer cells were subcultured in cell culture medium, and then the cells in good growth condition were seeded into 96-well plates at 80 µL/well, with 2.5×10^4 cells per well. The cells were incubated in a 37° C., 5% CO2 incubator for 3 days. The drug was prepared into a 10 mM stock solution with dimethyl sulfoxide (DMSO). Prior to use, the stock solution was diluted with cell culture medium to obtain six final concentrations (100 nM, 25 nM, 6.25 nM, 1.56 nM, 0.39 nM, and […]), and gently mixed. Additionally, negative control wells (only containing culture medium) and positive control wells (only containing cells and DMSO) were included. After the cells were incubated in the incubator for 24 h, the cells were rinsed once with ice-cold 1×PBS. […] The plate was sealed with plastic film, and incubated in a 37° C. incubator for 2 h. The film was removed. 200 μL of 1× washing buffer was added to each well, and then the plate was shaken for 5 min. The washing buffer was discarded, and the plate was pat-dried. The plate was washed four times. 100 μL of freshly prepared detection antibody (green) was added to each well of the ELISA plate. The plate was sealed with plastic film, and then incubated in a 37° C. incubator for 1 h. The film was removed, and the detection antibody was discarded. The plate was pat-dried. 200 μL of 1× washing buffer was added to each well, and then the plate was shaken for 5 min. The washing buffer was discarded, and the plate was pat-dried. The plate was washed four times. 100 μL of freshly prepared HRP-labeled secondary antibody (red) was added to each well of the ELISA plate. The plate was sealed with plastic film, and incubated in a 37° C. incubator for 30 min. The film was removed, the secondary antibody was discarded, and the plate was pat-dried, followed by adding 200 μL of 1× washing buffer to each well. The plate was shaken for 5 min, and the washing buffer was discarded before pat-drying the plate. The plate was washed four times. 100 μl of TMB substrate was added to each well of the ELISA plate, followed by incubating in a 37° C. incubator for 5 min. 100 μL of STOP solution was added to each well of the ELISA plate, and the plate was gently shaken for a few seconds. The bottom of each well was wiped with lint-free cloth. Within 30 min after adding the STOP solution, the absorbance was read at 450 nm. […] The data were analyzed using the Dose-response equation in GraphPad Prism8 software to obtain the DC50 and Dmax values, and both of them are important indicators for measuring the degradation activities of compounds on target proteins. […] The Dmax value represents the maximum percentage of target protein that can be degraded by the compound.
Compound,DC50 [nM],Dmax (read-out: Dmax) [%],Dmax
"O=C1CC[C@H](N2Cc3cc(N4CC5(CCN(CC6CCN(c7ccc([C@@H]8c9ccc(O)cc9OC[C@@H]8c8ccccc8F)cc7)CC6)CC5)C4)ccc3C2=O)C(=O)N1 [Example 91, (S)-3-(5-(7-((1-(4-((3S, 4R)-3-(2-fluorophenyl)-7-hydroxychroman-4-yl)phenyl)piperidin-4-yl)methyl)-2,7-diazaspiro[3.5]nonane-2-yl)-1-oxoisoinodolin-2-yl)piperidin-2,6-dione]",< 10,> 75,
"O=C1CCC(N2Cc3cc(N4CC5(CCN(CC6CCN(c7ccc([C@@H]8c9ccc(O)cc9OC[C@@H]8c8cc(F)ccc8F)cc7)CC6)CC5)C4)ccc3C2=O)C(=O)N1 (stereo partly drawn) [Example 47, 3-(5-(7-((1-(4-(cis-3-(2,5-difluorophenyl)-7-hydroxychroman-4-yl)phenyl)piperidin-4-yl)methyl)-2,7-diazaspiro[3.5]nonane-2-yl)-1-oxoisoinodolin-2-yl)piperidin-2,6-dione]",10 to 50,50 to 75,
"O=C1CCC(N2Cc3cc(N4CCC(N5CC6(CCN(c7ccc([C@@H]8c9ccc(O)cc9CC[C@@H]8c8ccccc8F)cc7)CC6)C5)CC4)ccc3C2=O)C(=O)N1 (stereo partly drawn) [Example 19, 3-(5-(4-(7-(4-(cis-2-(2-fluorophenyl)-6-hydroxyl-1,2,3,4-tetrahydronaphthalen-1-yl)phenyl)-2,7-diazaspiro[3.5]nonane-2-yl)piperidin-1-yl)-1-oxoisoinodolin-2-yl)piperidin-2,6-dione]",< 10,> 75,
"O=C1CCC(N2Cc3cc(N4CC5(CCN(CC6CCN(c7ccc([C@@H]8c9ccc(O)cc9OC[C@@H]8c8c(F)cccc8F)cc7)CC6)CC5)C4)ccc3C2=O)C(=O)N1 (stereo partly drawn) [Example 77, 3-(5-(7-((1-(4-((3S,4R)-3-(2,6-difluorophenyl)-7-hydroxychroman-4-yl)phenyl)piperidin-4-yl)methyl)-2,7-diazaspiro[3.5]nonane-2-yl)-1-oxoisoinodolin-2-yl)piperidin-2,6-dione]",,,B (B: 75-50%)
"O=C1CCC(N2Cc3cc(N4CCC(N5CC6(CCN(c7ccc([C@@H]8c9ccc(O)cc9OC[C@@H]8c8ccccc8F)cc7)CC6)C5)CC4)ccc3C2=O)C(=O)N1 (stereo partly drawn) [Example 20, 3-(5-(4-(7-(4-(cis-3-(2-fluorophenyl)-7-hydroxychroman-4-yl)phenyl)-2,7-diazaspiro[3.5]nonane-2-yl)piperidin-1-yl)-1-oxoisoinodolin-2-yl)piperidin-2,6-dione]",< 10,,
"O=C1CCC(N2Cc3cc(N4CC5(CCN(CC6CN(c7ccc(C8c9ccc(O)cc9OC[C@@H]8c8ccccc8F)cc7)C6)CC5)C4)ccc3C2=O)C(=O)N1 (stereo partly drawn) [Example 5, 3-(5-(7-((1-(4-(cis-3-(2-fluorophenyl)-7-hydroxypyran-4-yl)phenyl)azetidin-3-yl)methyl)-2,7-diazaspiro[3.5]nonane-2-yl)-1-oxoisoinodolin-2-yl)piperidin-2,6-dione]",> 100,50 to 75,
"O=C1CCC(N2Cc3cc(N4CC5(CCN(CC6CCN(c7ccc([C@@H]8c9ccc(O)cc9OC[C@@H]8CC(F)(F)F)cc7)CC6)CC5)C4)ccc3C2=O)C(=O)N1 (stereo partly drawn) [Example 92, 3-(5-(7-((1-(4-(cis-7-hydroxyl-3-(2,2,2-trifluoroethyl)chroman-4-yl)phenyl)piperidin-4-yl)methyl)-2,7-diazaspiro[3.5]nonane-2-yl)-1-oxoisoinodolin-2-yl)piperidin-2,6-dione]",10 to 50,50 to 75,
"O=C1CCC(N2Cc3cc(N4CC5(CCN(CC6CCN(c7c(F)cc([C@H]8c9ccc(O)cc9OC[C@H]8c8ccccc8F)cc7F)CC6)CC5)C4)ccc3C2=O)C(=O)N1 (stereo partly drawn) [Example 38, 3-(5-(7-((1-(2,6-difluoro-4-((3R,4S)-3-(2-fluorophenyl)-7-hydroxychroman-4-yl)phenyl)piperidin-4-yl)methyl)-2,7-diazaspiro[3.5]nonane-2-yl)-1-oxoisoindol-2-yl)piperidin-2,6-dione]",> 100,< 50,
"O=C1CCC(N2Cc3cc(N4CCC(N5CC6(CCN(c7ccc([C@@H]8c9ccc(O)cc9OC[C@@H]8c8ccccc8F)cc7F)CC6)C5)CC4)ccc3C2=O)C(=O)N1 (stereo partly drawn) [Example 68, 3-(5-(4-(7-(2-fluoro-4-((3,4-cis)-3-(2-fluorophenyl)-7-hydroxyl-chroman-4-yl)phenyl)-2,7-diazaspiro[3.5]nonane-2-yl)piperidin-1-yl)-1-oxoisoinodolin-2-yl)pyridine-2,6-dione]",< 10,> 75,
"O=C1CCC(N2Cc3cc(N4CC5(CCN(CC6CCN(c7ccc([C@@H]8c9ccc(O)cc9OC[C@@H]8c8cccc(F)c8F)cc7)CC6)CC5)C4)ccc3C2=O)C(=O)N1 (relative stereo) [Example 36, 3-(5-(7-((1-(4-(cis-3-(2,3-difluorophenyl)-7-hydroxychroman-4-yl)phenyl)piperidin-4-yl)methyl)-2,7-diazaspiro[3.5]nonane-2-yl)-1-oxoisoindol-2-yl)piperidin-2,6-dione]",< 10,50 to 75,
"O=C1CCC(N2Cc3cc(N4CCC(N5CC6(CCN(c7ccc([C@@H]8c9ccc(O)cc9CC[C@@H]8c8ccccc8)cc7F)CC6)C5)CC4)ccc3C2=O)C(=O)N1 (stereo partly drawn) [Example 69, 3-(5-(4-(7-(2-fluoro-4-((1,2-cis)-6-hydroxyl-2-phenyl-1,2,3,4-tetrahydronaphthalen-1-yl)phenyl)-2,7-diazaspiro[3.5]nonane-2-yl)piperidin-1-yl)-1-oxoisoinodolin-2-yl)pyridine-2,6-dione]",< 10,> 75,
"Cc1ccccc1[C@H]1COc2cc(O)ccc2[C@H]1c1ccc(N2CCC(CN3CCC4(CC3)CN(c3ccc5c(c3)CN(C3CCC(=O)NC3=O)C5=O)C4)CC2)cc1 (stereo partly drawn) [Example 35, 3-(5-(7-((1-(4-(cis-7-hydroxyl-3-(o-methylphenyl)chroman-4-yl)phenyl)piperidin-4-yl)methyl)-2,7-diazaspiro[3.5]nonane-2-yl)-1-oxoisoinodolin-2-yl)piperidin-2,6-dione]",10 to 50,50 to 75,
O=C1CCC(N2Cc3cc(N4CCC(N5CC6(CCN(c7ccc([C@H]8c9ccc(O)cc9OC[C@H]8c8ccccc8F)cc7)CC6)C5)CC4)ccc3C2=O)C(=O)N1 (stereo partly drawn) [Example 15],> 100,< 50,
